Data on 52 compounds can be found in PubChem BioAssay AID1996.

Values after ≈ are worked out from the molar mass of the structure shown.

For this data set the following is noted: buffer; pH 7.4; 200.0 µM.
Take `Cc1nc(N2CCN(c3ccccc3)CC2)[nH]c(=O)c1C`: the solubility (kinetic) came out at 39.5 µg/mL (≈ 139 µM).

As to `O=C(O)CCc1[nH]c2ccccc2c1Sc1ccccc1`, the kinetic solubility was more than 44.6 µg/mL.

Compound `COc1ccc(-c2nc(CN3CCN(c4ncccn4)CC3)c(C)o2)cc1C` came in with a solubility (kinetic) of 39 µg/mL (≈ 103 µM).

On to `N=C1SCC(=O)N1c1ncc(Cc2ccccc2Cl)s1`, for which the solubility (kinetic) came out at 2.2 µg/mL (≈ 6.79 µM). With `Cc1cccc(NC(=O)Cn2cc(C=O)c3ccccc32)c1` the figure was 0.9 µg/mL (≈ 3.08 µM); with `COc1cc(C2NC(=S)NC3=C2C(=O)CCC3)ccc1O` (configuration not stated), more than 45.7 µg/mL. With `CCC(CC)C(=O)Nc1ccc(C(=O)Nc2cc(C)on2)cc1` the figure was 5.7 µg/mL (≈ 18.1 µM); with `Cc1ccc(NC(=O)N[C@@H](CC(C)C)C(=O)O)c(C)c1`, more than 41.8 µg/mL; with `CN/C(=C/[N+](=O)[O-])NCCSCc1ccc(CN(C)C)o1.Cl`, 52.4 µg/mL. `COc1ccc(NC(=O)NC2(C)CCS(=O)(=O)C2)cc1` (configuration not stated) displayed a kinetic solubility of more than 44.8 µg/mL. With `N#CC1(NC(=O)CSc2nc3ccccc3o2)CCCCC1` the figure was more than 47.3 µg/mL; with `CCOC(=O)Cc1csc(NC(=O)CCc2ccccc2)n1`, 41 µg/mL (≈ 129 µM).

Compound `Cc1c(C)n(Cc2ccccc2)c2ncnc(NCCCN(C)C)c12` returned a solubility (kinetic) of more than 50.6 µg/mL.

As to `CCN(CC(=O)NCc1ccc(F)cc1)C(=O)C1CC1C` (configuration not stated), the kinetic solubility is more than 43.9 µg/mL. With `O=C(OCc1ccc([N+](=O)[O-])cc1)c1cc(=O)c2ccccc2o1` the figure was 5.9 µg/mL (≈ 18.1 µM); with `Cc1ccccc1N1C(=O)C2C3CCC(O3)C2C1=O` (configuration not stated), more than 38.6 µg/mL.

`COc1ccc(-n2ccc(=O)c(C(=O)O)n2)c(OC)c1` registered a kinetic solubility of more than 41.4 µg/mL. With `Cc1cccc(OCC(=O)N2CCc3ccccc3C2)c1` the figure was 34.6 µg/mL (≈ 123 µM); with `COc1ccc(-c2nc(C)ncc2-c2ccc(Cl)cc2)c(O)c1`, less than 0.3 µg/mL. Compound `N/C(=N\OC(=O)c1ccccc1F)c1ccc([N+](=O)[O-])cc1` yielded a solubility (kinetic) of 2.3 µg/mL (≈ 7.58 µM).

`Cc1nc(N)sc1-c1csc(Nc2cccc(C(=O)O)c2)n1` showed a kinetic solubility of more than 49.9 µg/mL. In the case of `O=C(Cn1cc(C(F)(F)F)ccc1=O)Nc1ccc2c(c1)OCCO2` it was 25.2 µg/mL (≈ 71.1 µM); in that of `O=[N+]([O-])c1cccc(S(=O)(=O)N2CCN(c3ccccn3)CC2)c1`, 1.3 µg/mL (≈ 3.73 µM). In the case of `O=C(O)CN1C(=O)NC2(CCOc3ccccc32)C1=O` (configuration not stated) it was more than 41.4 µg/mL. For the compound `CN1CCC(N(C)C(=O)c2ccc(Cl)c(S(=O)(=O)N3CCc4ccccc43)c2)CC1`, the kinetic solubility is more than 67.2 µg/mL.

For the compound `CCC(C(=O)Nc1c(C)cc(C)cc1C)N1CCCCCC1` (configuration not stated), the solubility (kinetic) came out at 41 µg/mL (≈ 136 µM). Turning to `CCCn1c(C(=O)c2ccc(OC)cc2)nc2ccccc21`, the solubility (kinetic) was 1.7 µg/mL (≈ 5.78 µM). In the case of `CCCCN(C(=O)c1cc(-c2ccncc2)nc2ccccc12)c1c(N)n(CC(C)C)c(=O)[nH]c1=O` it was 10 µg/mL (≈ 20.6 µM); in that of `Cc1ccc(-c2csc(CC(N)=O)n2)cc1`, more than 34.8 µg/mL; in that of `O=C(NC1CCSC1=O)C1CCCCC1` (configuration not stated), more than 34.1 µg/mL. With `COc1ccc2[nH]c(C)c(-c3csc(N)n3)c2c1` the figure was 31.3 µg/mL (≈ 121 µM). With `CC(NC(=O)COC(=O)C1CC1C)c1ccccc1` (configuration not stated), the kinetic solubility is more than 39.2 µg/mL. Take `CC1CN(c2ccc([N+](=O)[O-])cc2Cl)CCN1S(C)(=O)=O` (configuration not stated): the kinetic solubility was more than 50.1 µg/mL. With `CC1(C)Cc2cccc(C(=O)Nc3ccc(F)cc3F)c2O1` the figure was 0.7 µg/mL (≈ 2.31 µM). In the case of `O=C(O)CC(c1ccc(Cl)cc1)N1Cc2ccccc2C1=O` (configuration not stated), the kinetic solubility is more than 47.4 µg/mL. As for `C=CCNc1nc(C(=O)OCC(=O)Nc2ccccc2C(F)(F)F)cs1`, the solubility (kinetic) turned out to be 26.9 µg/mL (≈ 69.8 µM).

As for `Cc1cc(C)nc(/N=C(\NC(=O)C(C)(C)C)Nc2ccc(F)cc2)n1`, the solubility (kinetic) is 0.5 µg/mL (≈ 1.46 µM). With `Cc1ccc(OCc2ccc(C(=O)N3CCCC3)o2)cc1C` the figure was 31.8 µg/mL (≈ 106 µM); with `COc1ccc(NC(=O)/C=C/c2cccc(Br)c2)cn1`, 3.8 µg/mL (≈ 11.4 µM).

For the compound `N#Cc1c(C(F)(F)F)cc(=O)[nH]c1SCC(=O)O`, the solubility (kinetic) was more than 41.7 µg/mL. Turning to `CC(O)c1nc2ccccc2n1CCCOc1ccccc1` (configuration not stated), the kinetic solubility is more than 44.5 µg/mL. With `CC(=O)c1c(C)[nH]c(C(=O)N2CCN(c3ccccn3)CC2)c1C` the figure was 42.4 µg/mL (≈ 130 µM). In the case of `O=c1c2ccccc2[nH]c(=S)n1CCN1CCCCC1` it was more than 43.4 µg/mL. Compound `CCCCC1CN2CCc3c([nH]c4ccccc34)C2(C)C1.Cl` (configuration not stated) had a kinetic solubility of 27.7 µg/mL. With `CCOc1cc(C(=O)NC)cc(Br)c1OCc1ccccc1` the figure was less than 0.8 µg/mL.

Regarding `COc1ccccc1/C=N/OCc1ccc(C#N)cc1`, the solubility (kinetic) came to 0.9 µg/mL (≈ 3.38 µM). On to `Cc1ccc(S(=O)(=O)NCC(=O)NC2CC2)cc1`, for which the kinetic solubility was more than 40.2 µg/mL.

`Cc1ccc(O)c(Nc2c3ccccc3nc3ccccc23)c1` registered a kinetic solubility of 1.5 µg/mL (≈ 4.99 µM). In the case of `CC(C)c1ccccc1NC(=S)NC1CCCCC1` it was more than 41.5 µg/mL. Compound `CC1Cc2ccccc2N1S(=O)(=O)c1cnc(Cl)c(Br)c1` (configuration not stated) gave a kinetic solubility of less than 0.4 µg/mL. With `CCOc1ccccc1NC(=O)Cc1cccs1` the figure was 33.6 µg/mL (≈ 129 µM). In the case of `O=c1[nH]cnc2cc(-c3ccc(Br)cc3)sc12` it was 0.6 µg/mL (≈ 1.95 µM).
